In US20100143455A1, “Triazole antifungal agents” (priority 2008, published 2010):

Legend:
[1] = tested on: Ergosterol Biosynthesis, Candida albicans_C286; test: Inhibition of ergosterol biosynthesis; type: cell-based, Candida albicans; conditions: RPMI-1640, 30° C., 48 h, read-out: IC50 Values for Inhabitation of Ergosterol Biosynthesis
Description: (§1) Compounds of the invention were tested for their ability to inhibit ergosterol biosynthesis. Testing was performed in 96-well round-bottom microtitration plates. Cell suspensions were prepared in RPMI-1640 medium and were adjusted to give a final inoculum concentration of 0.5×10^3 to 2.5×10^3 cells/ml. The plates were incubated incubated at 30° C. for 48 h before growth was assessed. The MIC of each compounds was defined as the lowest concentration at which there was 80% inhibition of growth compared with that in a drug-free control [O. N. Breivik and J. L. Owades, Agric. Food Chem., 5 (1957) 360-363; T. F. Patterson, S. G. Revankar, W. R. Kirkpatrick, O. Dib, A. W. Fothergill, S. W. Redding, D. A. Sutton and M. G. Rinaldi, J. Clin. Microbiol., 34 (1996) 1794-1797]. Ergosterol content was calculated as a percentage of the wet weight of the cell [National Committee for Clinical Laboratory Standards. 1997. Reference method for broth dilution antifungal susceptibility testing of yeasts, Approved standard. Document M27-A, National Committee for Clinical Laboratory Standards, Wayne, Pa.].

[2] = tested on: Ergosterol Biosynthesis, Aspergillus fumigatus_ND 158; test: Inhibition of ergosterol biosynthesis; type: cell-based, Aspergillus fumigatus; conditions: RPMI-1640, 30° C., 48 h, read-out: IC50 Values for Inhabitation of Ergosterol Biosynthesis
Description: as §1

Trichophyton rubrum = test: In vitro activity test, agar dilution method (GMMIC); type: cell-based; conditions: 17 organisms, Kimmig's agar, 25° C.
Description: (§2) Organisms listed in Table 4 were tested according to an agar dilution method: Suspensions of each microorganism were prepared to contain […] colony forming units (cfu)/mL. All drugs were dissolved in a few drops of DMSO then diluted with ethanol—water (1/1, v/v) to make a stock solution of 500 μg/mL. The agar dilution method was performed in a medium of Kimmig's agar (K. A., Merck) −0.5% glycerol [R. A. Fromtling, G. K. Abruzzo and A. Ruiz, Mycopathologia, 106 (1989) 163-166]. Plates of Kimmig's agar containing serial dilutions (25 to 0.01 μg/mL) of the drugs were inoculated with 10 μL of the fungal inocula and incubated at 25° C. […] for yeasts and up to 5 days for filamentous fungi. Following incubation, GMMICs (geometric mean minimum inhibitory concentration μg/mL) were determined. In the table POCZ indicates posaconazole, ITRZ indicates itraconazole, and FLUZ indicates fluconazole. [Patterson, T. F., S. G. Revankar, W. R. Kirkpatrick, O. Dib, A. W. Fothergill, S. W. Redding, D. A. Sutton, and M. G. Rinaldi, J. Clin. Microbiol. 34 (1996) 1794-1797].

Candida Krusei = test: as above; type: cell-based; conditions: 22 organisms, Kimmig's agar, 25° C.
Description: as §2

Aspergillus Flavus = test: as above; type: cell-based; conditions: 9 organisms, Kimmig's agar, 25° C.
Description: as §2

Cryptococcus neoformans = test: as above; type: cell-based; conditions: 10 organisms, Kimmig's agar, 25° C.
Description: as §2

Microsporum canis = test: as above; type: cell-based; conditions: 6 organisms, Kimmig's agar, 25° C.
Description: as §2

Row | SMILES | IC50 [1] [nM] | IC50 [2] [nM] | other results
1 | CC(O)C(C)n1ncn(-c2ccc(N3CCN(c4ccc(SCC5OCC(Cn6cncn6)(c6ccc(F)cc6F)O5)cc4)CC3)cc2)c1=O (centres unmarked) [I-Re (D), 4-(4-(4-(4-((4-((1H-1,2,4-triazol-1-yl)methyl)-4-(2,4-difluorophenyl)-1,3-dioxolan-2-yl)methylthio)phenyl)piperazin-1-yl)phenyl)-1-(3-hydroxybutan-2-yl)-1H-1,2,4-triazol-5(4H)-one] | 31.9 |  | 
2 | CC(O)C(C)n1ncn(-c2ccc(N3CCN(c4ccc(SCC5CCC(Cn6cncn6)(c6ccc(F)cc6F)O5)cc4)CC3)cc2)c1=O (centres unmarked) [I-Re (T), 4-(4-(4-(4-((5-((1H-1,2,4-triazol-1-yl)methyl)-5-(2,4-difluorophenyl)tetrahydrofuran-2-yl)methylthio)phenyl)piperazin-1-yl)phenyl)-1-(3-hydroxybutan-2-yl)-1H-1,2,4-triazol-5(4H)-one] |  | 9.6 | 
3 | CCC(C(C)O)n1ncn(-c2ccc(N3CCN(c4ccc(SCC5OCC(Cn6cncn6)(c6ccc(F)cc6F)O5)cc4)CC3)cc2)c1=O (centres unmarked) [I-Rf (D), 4-(4-(4-(4-((4-((1H-1,2,4-triazol-1-yl)methyl)-4-(2,4-difluorophenyl)-1,3-dioxolan-2-yl)methylthio)phenyl)piperazin-1-yl)phenyl)-1-(2-hydroxypentan-3-yl)-1H-1,2,4-triazol-5(4H)-one] | 33.4 | 9.9 | 
4 | CCC(C(C)O)n1ncn(-c2ccc(N3CCN(c4ccc(SCC5CCC(Cn6cncn6)(c6ccc(F)cc6F)O5)cc4)CC3)cc2)c1=O (centres unmarked) [I-Rf (T), 4-(4-(4-(4-((5-((1H-1,2,4-triazol-1-yl)methyl)-5-(2,4-difluorophenyl)tetrahydrofuran-2-yl)methylthio)phenyl)piperazin-1-yl)phenyl)-1-(2-hydroxypentan-3-yl)-1H-1,2,4-triazol-5(4H)-one] | 32.1 | 9.5 | 
5 | C=CC(C)n1ncn(-c2ccc(N3CCN(c4ccc(SCC5OCC(Cn6cncn6)(c6ccc(F)cc6F)O5)cc4)CC3)cc2)c1=O (centres unmarked) [I-Rg (D), 4-(4-(4-(4-((4-((1H-1,2,4-triazol-1-yl)methyl)-4-(2,4-difluorophenyl)-1,3-dioxolan-2-yl)methylthio)phenyl)piperazin-1-yl)phenyl)-1-(but-3-en-2-yl)-1H-1,2,4-triazol-5(4H)-one] | 33.8 | 10.2 | 
6 | CCC(C)n1ncn(-c2ccc(N3CCN(c4ccc(CSC5OCC(Cn6cncn6)(c6ccc(F)cc6F)O5)cc4)CC3)cc2)c1=O (centres unmarked) [II-Ra (D), 4-(4-(4-(4-((4-((1H-1,2,4-triazol-1-yl)methyl)-4-(2,4-difluorophenyl)-1,3-dioxolan-2-ylthio)methyl)phenyl)piperazin-1-yl)phenyl)-1-sec-butyl-1H-1,2,4-triazol-5(4H)-one] | 34.3 | 10.3 | 
7 | CCC(C(C)O)n1ncn(-c2ccc(N3CCN(c4ccc(CSC5OCC(Cn6cncn6)(c6ccc(F)cc6F)O5)cc4)CC3)cc2)c1=O (centres unmarked) [II-Rf (D), 4-(4-(4-(4-((4-((1H-1,2,4-triazol-1-yl)methyl)-4-(2,4-difluorophenyl)-1,3-dioxolan-2-ylthio)methyl)phenyl)piperazin-1-yl)phenyl)-1-(2-hydroxypentan-3-yl)-1H-1,2,4-triazol-5(4H)-one] | 31.1 | 9.8 | 
8 | CCC(C(C)O)n1ncn(-c2ccc(N3CCN(c4ccc(CSC5CCC(Cn6cncn6)(c6ccc(F)cc6F)O5)cc4)CC3)cc2)c1=O (centres unmarked) [II-Rf (T), 4-(4-(4-(4-((5-((1H-1,2,4-triazol-1-yl)methyl)-5-(2,4-difluorophenyl)tetrahydrofuran-2-ylhio)methyl)phenyl)piperazin-1-yl)phenyl)-1-(2-hydroxypentan-3-yl)-1H-1,2,4-triazol-5(4H)-one] | 32.9 | 9.3 | 
9 | CCC(C)n1ncn(-c2ccc(N3CCN(c4ccc(OCC5COC(Cn6cncn6)(c6ccc(Cl)cc6Cl)O5)cc4)CC3)cc2)c1=O (centres unmarked) [ITRZ, itraconazole] |  |  | GMMICS (geometric mean minimum inhibitory concentration) (Trichophyton rubrum): 3.1 µg/mL; GMMICS (geometric mean minimum inhibitory concentration) (Candida Krusei): 0.60 µg/mL; GMMICS (geometric mean minimum inhibitory concentration) (Aspergillus Flavus): 0.35 µg/mL; GMMICS (geometric mean minimum inhibitory concentration) (Cryptococcus neoformans): 0.49 µg/mL; GMMICS (geometric mean minimum inhibitory concentration) (Microsporum canis): 1.2 µg/mL
10 | CC[C@@H]([C@H](C)O)n1ncn(-c2ccc(N3CCN(c4ccc(OC[C@@H]5CO[C@@](Cn6cncn6)(c6ccc(F)cc6F)C5)cc4)CC3)cc2)c1=O [POCZ, posaconazole, reference compound] |  | 11.8 | 
